Experimental findings from ChEMBL document CHEMBL1201862, “PubChem BioAssay data set” (2004) are described below.

Molecules are shown by their SMILES. Calls of active or inactive are those of the source.

One assay relates to INS1. Briefly: beta cell apoptosis inhibitors, cytokine rescue, dose response, luminescence, retest (AID 449756).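 Further: cell death triggered by IL-1 beta plus TNF-alpha plus IFN-gamma mixture; protective hits raise ATP signal compared with cytokine alone wells.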 The class given is functional, cell-based. The settings on record: Rattus norvegicus.
A short description of assay [1]: Jurkat T cell cytotoxicity, dose response, cytotoxicity control for P. falciparum gametocyte viability project, luminescence (AID 1117277).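 Further: potency reflects loss of cellular ATP meaning fewer viable cells.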 The assay is classed as functional, cell-based.
Assay [2] can be described thus: concentration-dependent intrinsic compound fluorescence, S. cerevisiae AD/pABC3, flow cytometry, Cherry Pick1 hits, artefact control for antifungal efflux pump inhibitor project, dose response (AID 588620). The assay is classed as functional. Background: Flow cytometry measures light scatter and fluorescence of single cells or particles in a stream.
Assay [3] has as its target T1, Microphthalmia-associated transcription factor (Homo sapiens, UniProt O75030).
T1 sequence (O75030 whole entry): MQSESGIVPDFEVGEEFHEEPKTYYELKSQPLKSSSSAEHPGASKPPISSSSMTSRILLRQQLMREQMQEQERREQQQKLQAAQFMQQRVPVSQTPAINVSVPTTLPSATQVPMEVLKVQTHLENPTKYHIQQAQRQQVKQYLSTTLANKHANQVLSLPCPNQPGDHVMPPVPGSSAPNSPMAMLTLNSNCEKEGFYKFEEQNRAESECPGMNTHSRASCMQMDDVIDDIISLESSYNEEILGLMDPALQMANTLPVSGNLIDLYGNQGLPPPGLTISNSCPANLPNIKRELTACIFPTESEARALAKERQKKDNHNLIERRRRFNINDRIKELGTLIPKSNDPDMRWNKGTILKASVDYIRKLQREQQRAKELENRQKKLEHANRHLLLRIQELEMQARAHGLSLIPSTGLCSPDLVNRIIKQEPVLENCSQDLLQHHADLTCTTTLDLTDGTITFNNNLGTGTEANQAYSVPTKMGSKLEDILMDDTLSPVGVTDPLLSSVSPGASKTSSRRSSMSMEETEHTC
Briefly: TRPM1 promoter luciferase signal decrease, dose response, MITF inhibitor project, cell-based, SK-MEL-5, cherry-picked, set 3 (AID 493073).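 Further: SK-MEL-5 melanoma cells with luciferase driven by the MITF target TRPM1 promoter.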 The class given is functional.

A further assay has as its target Protein Wnt-3a (Mus musculus, UniProt P27467). Briefly: Wnt3a-driven reporter signaling inhibition, dose response, selectivity assay for Gli-SUFU antagonist project, Wnt-LIGHT cells, luminescence (AID 651570).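 Further: Wnt-LIGHT reporter cells stimulated with conditioned medium from Wnt3a-producing cells.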 The class given is functional. The settings on record: read-out: IC50_Mean.
Assay [4] in a line: P. falciparum late gametocyte killing, dose response, luminescence (AID 1117278).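 Further: gametocytes exposed to compound for 24 hours.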 The class given is functional, cell-based.
A further assay concerns Candida albicans. Briefly: single-agent growth inhibition of C. albicans, dose response, counter-screen for antifungal drug resistance project, C. albicans CaCi-2, dry powder (AID 488802). The class given is functional, organism-based.
Assay [5] deals with T2, Sentrin-specific protease 6 (Homo sapiens, UniProt Q9GZR1).
T2 sequence (Q9GZR1 whole entry): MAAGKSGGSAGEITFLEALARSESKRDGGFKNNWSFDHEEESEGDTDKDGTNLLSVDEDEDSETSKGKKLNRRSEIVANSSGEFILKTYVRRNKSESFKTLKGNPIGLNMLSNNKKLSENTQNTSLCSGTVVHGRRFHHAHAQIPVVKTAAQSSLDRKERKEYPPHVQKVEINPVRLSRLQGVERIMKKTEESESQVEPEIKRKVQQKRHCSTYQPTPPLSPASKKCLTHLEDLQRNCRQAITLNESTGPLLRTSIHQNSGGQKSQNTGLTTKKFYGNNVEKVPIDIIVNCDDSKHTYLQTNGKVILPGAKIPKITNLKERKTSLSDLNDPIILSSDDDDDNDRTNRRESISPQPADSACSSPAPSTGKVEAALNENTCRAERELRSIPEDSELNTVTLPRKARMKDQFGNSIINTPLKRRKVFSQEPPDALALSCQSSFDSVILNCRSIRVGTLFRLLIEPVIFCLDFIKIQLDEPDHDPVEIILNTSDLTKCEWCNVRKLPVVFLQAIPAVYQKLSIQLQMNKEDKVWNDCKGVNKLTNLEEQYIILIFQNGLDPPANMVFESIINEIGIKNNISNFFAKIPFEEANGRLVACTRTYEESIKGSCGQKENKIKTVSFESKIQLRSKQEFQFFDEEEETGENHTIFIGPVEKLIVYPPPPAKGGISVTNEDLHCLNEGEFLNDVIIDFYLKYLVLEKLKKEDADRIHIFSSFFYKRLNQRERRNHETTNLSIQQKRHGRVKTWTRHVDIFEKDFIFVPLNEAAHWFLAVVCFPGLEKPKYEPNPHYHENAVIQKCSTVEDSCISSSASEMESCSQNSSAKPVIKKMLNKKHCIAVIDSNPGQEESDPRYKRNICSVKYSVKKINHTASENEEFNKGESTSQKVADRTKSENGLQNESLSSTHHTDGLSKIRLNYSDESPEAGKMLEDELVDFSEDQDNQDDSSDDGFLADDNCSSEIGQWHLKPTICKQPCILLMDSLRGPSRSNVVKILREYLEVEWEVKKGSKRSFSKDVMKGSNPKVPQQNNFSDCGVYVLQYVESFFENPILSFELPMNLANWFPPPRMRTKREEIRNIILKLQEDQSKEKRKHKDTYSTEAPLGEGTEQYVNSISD
Description: SENP6 protease inhibitors, SAR follow-up, biochemical, luminescence, set 2 (AID 588598). The assay is classed as functional.

Assay [6] concerns the target T3, Sentrin-specific protease 8 (Homo sapiens, UniProt Q96LD8).
T3 sequence (Q96LD8 whole entry): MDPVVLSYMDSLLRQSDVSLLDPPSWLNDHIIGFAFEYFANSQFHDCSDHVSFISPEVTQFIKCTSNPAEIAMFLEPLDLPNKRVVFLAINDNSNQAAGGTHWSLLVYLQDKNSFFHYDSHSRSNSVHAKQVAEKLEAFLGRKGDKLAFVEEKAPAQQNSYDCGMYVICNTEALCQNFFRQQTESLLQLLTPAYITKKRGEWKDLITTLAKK
Description: SENP8 protease inhibitors, SAR follow-up, biochemical, luminescence, set 2 (AID 588601). The class given is functional.

The target of a further assay is T4, Caspase-3 (Homo sapiens, UniProt P42574).
T4 sequence (P42574 whole entry): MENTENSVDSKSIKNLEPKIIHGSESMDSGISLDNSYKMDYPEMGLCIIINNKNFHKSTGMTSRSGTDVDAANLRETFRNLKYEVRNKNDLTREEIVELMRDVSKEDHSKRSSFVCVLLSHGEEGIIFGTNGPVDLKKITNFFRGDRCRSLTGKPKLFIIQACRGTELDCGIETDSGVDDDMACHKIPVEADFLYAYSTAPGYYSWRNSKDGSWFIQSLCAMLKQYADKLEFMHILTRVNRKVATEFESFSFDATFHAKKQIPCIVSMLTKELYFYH
Briefly: caspase-3 inhibitors as off-family protease, SAR follow-up, selectivity assay for SENP protease inhibitor project, biochemical, luminescence, set 2 (AID 588599). The assay is classed as functional.

Assay [7] deals with T5, Sentrin-specific protease 7 (Homo sapiens, UniProt Q9BQF6).
T5 sequence (Q9BQF6 whole entry): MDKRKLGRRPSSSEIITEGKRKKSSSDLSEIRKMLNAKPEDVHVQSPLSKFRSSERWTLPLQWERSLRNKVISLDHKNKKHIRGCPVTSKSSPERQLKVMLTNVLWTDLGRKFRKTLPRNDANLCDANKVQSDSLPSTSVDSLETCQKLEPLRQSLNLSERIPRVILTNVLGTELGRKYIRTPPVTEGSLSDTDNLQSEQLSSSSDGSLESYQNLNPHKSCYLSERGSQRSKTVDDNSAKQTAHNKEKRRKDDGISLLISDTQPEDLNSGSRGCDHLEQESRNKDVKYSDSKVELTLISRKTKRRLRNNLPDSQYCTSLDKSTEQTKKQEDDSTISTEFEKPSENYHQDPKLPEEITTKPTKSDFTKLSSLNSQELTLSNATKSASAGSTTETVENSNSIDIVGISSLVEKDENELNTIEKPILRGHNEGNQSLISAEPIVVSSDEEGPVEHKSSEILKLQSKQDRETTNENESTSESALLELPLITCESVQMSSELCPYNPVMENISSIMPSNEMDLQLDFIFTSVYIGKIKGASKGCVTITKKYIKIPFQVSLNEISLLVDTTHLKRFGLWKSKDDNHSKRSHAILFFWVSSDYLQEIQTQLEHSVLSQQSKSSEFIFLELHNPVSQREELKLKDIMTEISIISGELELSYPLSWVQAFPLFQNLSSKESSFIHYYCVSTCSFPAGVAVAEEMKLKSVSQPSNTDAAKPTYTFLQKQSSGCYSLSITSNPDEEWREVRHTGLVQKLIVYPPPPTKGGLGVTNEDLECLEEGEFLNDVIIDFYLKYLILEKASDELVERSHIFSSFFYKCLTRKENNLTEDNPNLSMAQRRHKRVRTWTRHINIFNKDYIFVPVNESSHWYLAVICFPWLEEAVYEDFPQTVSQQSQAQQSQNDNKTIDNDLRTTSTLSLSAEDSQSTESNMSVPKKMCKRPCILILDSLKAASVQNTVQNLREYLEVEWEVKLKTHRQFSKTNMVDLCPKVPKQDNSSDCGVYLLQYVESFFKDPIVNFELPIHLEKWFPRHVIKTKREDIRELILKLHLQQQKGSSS
Description: SENP7 protease inhibitors, SAR follow-up, biochemical, luminescence, set 2 (AID 588600). The class given is functional.

Protein Wnt-3a, sequence (P27467 whole entry): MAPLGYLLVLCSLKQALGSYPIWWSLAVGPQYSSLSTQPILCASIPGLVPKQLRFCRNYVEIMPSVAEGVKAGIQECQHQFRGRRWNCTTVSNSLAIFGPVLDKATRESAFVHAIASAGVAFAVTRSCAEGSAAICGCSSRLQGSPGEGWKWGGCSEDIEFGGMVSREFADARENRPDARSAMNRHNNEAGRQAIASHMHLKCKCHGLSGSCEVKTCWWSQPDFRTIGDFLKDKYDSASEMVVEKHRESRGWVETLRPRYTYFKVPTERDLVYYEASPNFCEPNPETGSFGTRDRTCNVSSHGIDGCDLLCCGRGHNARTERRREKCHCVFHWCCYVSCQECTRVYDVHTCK

For the compound `Cc1ccc(-c2c[n+](Cc3ccc(Cl)c(Cl)c3)c3n2CCC3)cc1`, the results for the AC50 (in the assay on INS1; in assay [3]) were 3.4 µM (active) and 3.74 µM (active), respectively. Besides, the IC50 in [1] is 43.6 µM (inactive); at Protein Wnt-3a it was 24.5 µM (inactive); in [4], > 109 µM (inactive). For the same compound, the EC50 in [2] is 43.6 µM (active).
Turning to `Cc1nn(S(C)(=O)=O)c2ccccc12`, the AC50 in the assay with Candida albicans was 46.7 µM (active).
Take `O=C(Nc1nc2ccc(SC(F)F)cc2s1)c1cn(-c2ccccc2)nc1-c1ccc(Cl)cc1`: the IC50 (in assay [5]; in [6]; on Caspase-3; in assay [7]) was > 99 µM (inactive) throughout.

Broadly, the AC50 is the concentration at which the activity in the assay is half-maximal. A word on the EC50: it is the midpoint of the concentration-response curve.
